Format in all cases: binding
Assay [1] concerns polyclonal antibody from Rabbit No. 154 (anti-SDMA). The assay can be described thus: Competitive ELISA, specificity with greater stringency, polyclonal antibody from Rabbit No. 154. The settings on record: polyclonal antibody from Rabbit No. 154, determined with greater stringency. The method, then: (§1) 50 μl of the SDMA-HRP conjugate (as described in Example 5 below), 50 μl of ADMA, SDMA, N-methylarginine or L-arginine (at concentrations from 1-100 μg/ml as described above), and 50 μl of rabbit anti-SDMA antibody in serum (1:3000 titer) were sequentially added to an individual well in a 96-well polystyrene microwell plate, precoated with sheep anti-rabbit IgG (commercially available from Beacon Analytical Systems Inc. of Portland, ME). After a 30 minutes incubation period at room temperature, the wells were washed 4 times with PBST (Phosphate Buffered Saline, 0.05% Tween).
(§2) 100 μl of 3,3′,5,5′-Tetramethylbenzidine (commercially available from Promega Corporation of Madison, WI) was subsequently added. Following a 30 minutes incubation period at room temperature, 100 μl of stop solution (1 N HCl) was added and the absorbance was measured at 450 nm using a BioTek ELX 808 (Winooski, VT) plate reader. The data was subjected to quantification using Softmax software (Molecular Devices, Sunnyvale, CA).
(§3) The absorbance values obtained with 0 μg/mL, 1 μg/mL, 10 μg/mL, and 100 μg/mL of ADMA, SDMA, N-methylarginine or L-arginine, respectively, were determined and plotted. The concentration of SDMA at which the absorbance value was reduced by 50% (relative to the maximum absorbance obtained at 0 μg/mL SDMA; i.e. IC50) was divided by each of the concentrations of ADMA, N-methylarginine or L-arginine, respectively, at which the absorbance value was reduced by 50% (IC50). The resulting value was multiplied by 100 to obtain the value “% cross-reactivity”.
In another experiment, using only polyclonal antibody from Rabbit No. 154, the specificity of the antibody was determined with greater stringency by the method described above.
For orientation: In an ELISA, binding on a coated surface is turned into a signal by an enzyme label.

For assay [2], the system named is rabbit anti-SDMA antibody in serum, Rabbit # 156 (SDMA-BSA immunogen). The assay can be described thus: Competitive ELISA, specificity of rabbit anti-SDMA antiserum, Rabbit #156. The settings on record: Rabbit # 156 antiserum (1:20K); for % Cross Reactivity: IC50 of SDMA / IC50 of competitor x 100; for IC 50: competition with SDMA-HRP conjugate, absorbance 450 nm. The method, then: (§4) The immunization protocol for generating the anti-SDMA antibodies was carried out according to the following protocol. Six California breed rabbits were immunized with an SDMA-conjugate. Three of the six rabbits were immunized with SDMA conjugated with BSA (rabbits #155, 156 and 157) and the other three rabbits were immunized with SDMA conjugated with KLH (rabbits #152, 153 and 154) (prepared as described in Example 2). For primary immunizations, each rabbit was injected with 0.5 mg of the SDMA conjugate in 1 ml of phosphate buffered saline (PBS) mixed with 1 ml of Freund's complete adjuvant. Each rabbit received 20-30 intradermal injections on their shaved back. Each rabbit was boosted with 0.25 mg of immunogen in 1 ml PBS mixed with equal volume of Freund's incomplete adjuvant in the hind legs. The boosting shots were given each month after the primary injection. Test bleeds of 5 ml blood were taken from each rabbit 7-10 days after each boost. Production bleeds of 40 ml were taken from each rabbit after the third booster shot, when the antisera titer was greater than about 1:2000. Antiserum titer is the dilution of antiserum that generates the steepest calibration curve for the assay.
(§5) In order to assess the specificity of the antibodies obtained by the procedures described in Example 3 above, their reactivity to SDMA, ADMA, L-arginine, and/or N-methylarginine was measured in a competitive ELISA assay (Table 1).
(§6) ADMA-2HCl, SDMA-2HCl, N-methylarginine acetate (Sigma, Cat. No. M7033) or L-arginine (Sigma, Cat. No. A5006) were each dissolved in PBS to make stock solutions at 1 mg/ml. From these stock solutions, working solutions at 100 μg/ml, 10 μg/ml and 1 μg/ml were prepared in PBS.
(§7) […] After a 30 minutes incubation period at room temperature, the wells were washed 4 times with PBST (Phosphate Buffered Saline, 0.05% Tween).
as §2, §3

Assay [3] concerns rabbit anti-SDMA antibody in serum, Rabbit # 152 (SDMA-KLH immunogen). The assay can be described thus: Competitive ELISA, specificity of rabbit anti-SDMA antiserum, Rabbit #152. The following applies: Rabbit # 152 antiserum (1:5K); for % Cross Reactivity: IC50 of SDMA / IC50 of competitor x 100; for IC 50: competition with SDMA-HRP conjugate, absorbance 450 nm. The procedure: as §4, §5, §6, §7, §2, §3

Assay [4] deals with rabbit anti-SDMA antibody in serum, Rabbit # 155 (SDMA-BSA immunogen). Briefly: Competitive ELISA, specificity of rabbit anti-SDMA antiserum, Rabbit #155. The settings on record: Rabbit # 155 antiserum (1:3K); for % Cross Reactivity: IC50 of SDMA / IC50 of competitor x 100; for IC 50: competition with SDMA-HRP conjugate, absorbance 450 nm. The procedure:
as §4, §5, §6, §1, §2, §3

Assay [5] concerns rabbit anti-SDMA antibody in serum, Rabbit # 154 (SDMA-KLH immunogen). Briefly: Competitive ELISA, specificity of rabbit anti-SDMA antiserum, Rabbit #154. The settings on record: Rabbit # 154 antiserum (1.25K); for % Cross Reactivity: IC50 of SDMA / IC50 of competitor x 100; for IC 50: competition with SDMA-HRP conjugate, absorbance 450 nm. The method, then:
as §4, §5, §6, §7, §2, §3

In assay [6] the test system is rabbit anti-SDMA antibody in serum, Rabbit # 153 (SDMA-KLH immunogen). Briefly: Competitive ELISA, specificity of rabbit anti-SDMA antiserum, Rabbit #153. The following applies: Rabbit # 153 antiserum (1:2.5K); for % Cross Reactivity: IC50 of SDMA / IC50 of competitor x 100; for IC 50: competition with SDMA-HRP conjugate, absorbance 450 nm. The procedure: as §4, §5, §6, §7, §2, §3

The subject of assay [7] is rabbit anti-SDMA antibody in serum, Rabbit # 157 (SDMA-BSA immunogen). The assay can be described thus: Competitive ELISA, specificity of rabbit anti-SDMA antiserum, Rabbit #157. The settings on record: Rabbit # 157 antiserum (1:15K); for % Cross Reactivity: IC50 of SDMA / IC50 of competitor x 100; for IC 50: competition with SDMA-HRP conjugate, absorbance 450 nm. The procedure: as §4, §5, §6, §7, §2, §3

Values after ≈ are worked out from the molar mass of the structure shown.

For the compound `CN(C)C(=N)NCCCC(N)C(=O)O` (stereo not drawn) [ADMA, asymmetrical dimethylarginine], the “Specificity (Cross-Reactivity) Rabbit No. 154 Cross-reactivity” value in assay [1] was less than 0.2%. The “% Cross Reactivity” value in assay [2], in assay [3], in assay [4], in assay [5], in assay [6] and in assay [7] was less than 1% in each case. Further, the “IC 50” value in assay [2], in assay [3], in assay [4], in assay [5], in assay [6] and in assay [7] was more than 100 mg/L throughout.

For `N=C(N)NCCC[C@H](N)C(=O)O` [L-Arginine, L-arginine], the “Specificity (Cross-Reactivity) Rabbit No. 154 Cross-reactivity” value in assay [1] is less than 0.01%. The “% Cross Reactivity” value in assay [2], in assay [3], in assay [4], in assay [5], in assay [6] and in assay [7] was less than 1% throughout. In addition, the “IC 50” value in assay [2], in assay [3], in assay [4], in assay [5], in assay [6] and in assay [7] was more than 100 mg/L in each case.

With `CNC(=N)NCCCC(N)C(=O)O` (stereo not drawn) [N-MMA, N-monomethylarginine], the “% Cross Reactivity” value in assay [2], in assay [3], in assay [4], in assay [5], in assay [6] and in assay [7] was less than 1% in each case. The “IC 50” value in assay [2] is more than 100 mg/L; in assay [3] it was more than 100 mg/L; in assay [4], 79 mg/L (≈ 420 µM); in assay [5], more than 100 mg/L; in assay [6], more than 100 mg/L; in assay [7], more than 100 mg/L.

With `C/N=C(\NC)NCCCC(N)C(=O)O` (stereo not drawn) [SDMA, symmetrical dimethylarginine], the “Specificity (Cross-Reactivity) Rabbit No. 154 Cross-reactivity” value in assay [1] worked out at 100%. Besides, the “% Cross Reactivity” value in assay [2], in assay [3], in assay [4], in assay [5], in assay [6] and in assay [7] was 100% in each case. Also, the “IC 50” value in assay [2] was found to be 1.3 mg/L (≈ 6.43 µM); in assay [3] it was 1.10 mg/L (≈ 5.44 µM); in assay [4] it was 0.73 mg/L (≈ 3.61 µM); in assay [5], 0.49 mg/L (≈ 2.42 µM); in assay [6] it was 0.65 mg/L (≈ 3.21 µM); in assay [7], 1.6 mg/L (≈ 7.91 µM).

Values taken from US20250271442A1, “Methods for Detecting Renal Disease” (IDEXX Laboratories, Inc., priority 2013, published 2025).
